According to patent US8227604B2, “Hybrid 2-aminotetralin and aryl-substituted piperazine compounds and their use in altering CNS activity” (Wayne State University, priority 2001, dated 2012):

Legend:
[1] = biological target: T1, D1 receptor (Homo sapiens, UniProt P21728); test: Binding affinity at cloned human D1 receptor, [3H]SCH23390 (LHD1 cells)
T1 construct: expressed in transfected cells; host or cells: LHD1 cells
Experimental: LHD1 cells (human receptor) are grown and prepared as described for the HA7 cells as described hereafter. The final pellet is resuspended at 5 mg protein/80 ml in 50 mM Tris-HCl containing 120 mM of NaCl, 5 mM of KCl, 2 mM of CaCl2, and 1 mM of MgCl2, pH 7.4. To wells containing 100 μl of test drug or buffer and […] of [^3H]SCH 23390 (0.18 nM final conc.), is added 0.8 ml of cell homogenate (0.05 mg protein/well), and the plates are incubated at […] for 60 min. Nonspecific binding is determined with 1 μM of SCH 23390.

[2] = biological target: T2, D2 receptor (Homo sapiens, UniProt P14416); test: Binding affinity at cloned human D2 receptor, [3H]YM-09151-2 (CHOp-D2 cells)
T2 construct: expressed in transfected cells
T2 sequence (P14416 whole entry): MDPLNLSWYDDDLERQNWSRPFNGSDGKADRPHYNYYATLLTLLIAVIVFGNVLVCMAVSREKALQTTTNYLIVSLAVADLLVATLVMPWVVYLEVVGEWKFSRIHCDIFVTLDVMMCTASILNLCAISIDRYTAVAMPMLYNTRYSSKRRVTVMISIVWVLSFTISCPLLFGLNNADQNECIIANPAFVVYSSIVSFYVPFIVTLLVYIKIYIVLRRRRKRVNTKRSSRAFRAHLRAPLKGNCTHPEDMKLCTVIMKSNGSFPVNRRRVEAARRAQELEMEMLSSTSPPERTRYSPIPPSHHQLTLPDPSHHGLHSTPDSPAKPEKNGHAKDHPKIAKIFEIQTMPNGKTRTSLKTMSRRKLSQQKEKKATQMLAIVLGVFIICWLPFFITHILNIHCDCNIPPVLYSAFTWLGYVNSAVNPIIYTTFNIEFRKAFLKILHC
Experimental: (§1) CHOp-cells (human receptors) are grown to confluence in a minimum essential medium (α MEM) containing 10% fetal calf serum, 0.05% pen-strep, and 600 μg/ml of G418. The cells are scraped from the 100 by 20 mm plates and centrifuged at 500. g for 5 min. The pellet is homogenized by polytron in 50 mM Tris-HCl, pH 7.7, and centrifuged at 27,000·G for 12 min. The pellet is resuspended in 50 mM Tris, D2 at 5 mg protein/ml, D3 at 1 mg protein/ml, and stored at −70° C. in 1-ml aliquots.
(§2) On the day of the experiment, CHOp-D2 or CHOp-D3 cells are thawed, resuspended in 50 mM Tris, and centrifuged at 27,000·G for 12 min. The pellet is then resuspended at 5 mg protein/80 ml (D2) and 1 mg protein/80 ml (D3) in 50 mM Tris containing 120 mM of NaCl, 5 mM of KCl, 1.5 mM of CaCl2, 4 mM of MgCl2, and 1 mM of EDTA, pH 7.4. […] Nonspecific binding is determined with 1 mM of chlorpromazine. The plates are incubated at 25° C. for 60 min before filtration and counted as usual. The filters are soaked in 0.1% PEI before filtering.

[3] = biological target: T3, 5HT1A receptor (Homo sapiens, UniProt P08908); test: Binding affinity at cloned human 5HT1A receptor, [3H]8-OH-DPAT (HA7 cells)
T3 construct: expressed in transfected cells; host or cells: HA7 cells
T3 sequence (P08908 1-422): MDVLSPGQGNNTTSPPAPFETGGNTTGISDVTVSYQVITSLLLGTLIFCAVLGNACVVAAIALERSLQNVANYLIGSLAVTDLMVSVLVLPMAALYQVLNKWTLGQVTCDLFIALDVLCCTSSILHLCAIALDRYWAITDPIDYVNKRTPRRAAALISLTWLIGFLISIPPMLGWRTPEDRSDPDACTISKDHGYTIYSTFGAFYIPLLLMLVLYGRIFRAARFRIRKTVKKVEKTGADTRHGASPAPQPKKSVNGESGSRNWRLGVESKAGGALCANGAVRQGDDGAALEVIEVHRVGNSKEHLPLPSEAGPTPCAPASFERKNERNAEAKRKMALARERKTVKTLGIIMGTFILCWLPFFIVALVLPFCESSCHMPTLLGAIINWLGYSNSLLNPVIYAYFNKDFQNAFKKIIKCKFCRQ
Experimental: HA7 cells (human receptor) are grown to confluence in DMEM containing 10% fetal calf serum, 0.05% penicillin-streptomycin (pen-strep), and […] of G418. The cells are scraped from the 100 by 20 mm plates and centrifuged at 500·G for 5 min. The pellet is homogenized in 50 mM Tris-HCl, pH 7.7, with a polytron, centrifuged at 27,000·G and resuspended at 10 mg protein/ml in the same buffer. The homogenate is then stored at −70° C. in 1-ml aliquots.
The thawed cells are washed once and resuspended at 10 mg protein/80 ml in 25 mM Tris-HCl containing 100 μM of ascorbic acid and 10 mM of nialamide at pH 7.4. The assay is performed in triplicate in a 96-well plate. To 100 μl of [^3H]8-OH-DPAT (0.5 nM final conc), […] of test compound or buffer and 0.8 ml of cell homogenate (0.1 mg protein/well) is added to each well by a Tomtec Quadra 96. Nonspecific binding is defined using 1 μM dihydroergotamine. The plates are incubated at 25° C. for 60 min, then filtered. The incubation is terminated by rapid filtration through glass fiber filter paper on a Tomtec cell harvester. The filters are washed four times with ice-cold 50 mM Tris-HCl, pH 7.7, dried overnight, bagged with 10 ml scintillation cocktail before counting for 2 min. on a Wallac Betaplate 1205 liquid scintillation counter.

[4] = biological target: T4, 5HT2A receptor (Homo sapiens, UniProt P28223); test: Binding affinity at cloned human 5HT2A receptor, [3H]Ketanserin
T4 construct: expressed in transfected cells
T4 sequence (P28223 whole entry): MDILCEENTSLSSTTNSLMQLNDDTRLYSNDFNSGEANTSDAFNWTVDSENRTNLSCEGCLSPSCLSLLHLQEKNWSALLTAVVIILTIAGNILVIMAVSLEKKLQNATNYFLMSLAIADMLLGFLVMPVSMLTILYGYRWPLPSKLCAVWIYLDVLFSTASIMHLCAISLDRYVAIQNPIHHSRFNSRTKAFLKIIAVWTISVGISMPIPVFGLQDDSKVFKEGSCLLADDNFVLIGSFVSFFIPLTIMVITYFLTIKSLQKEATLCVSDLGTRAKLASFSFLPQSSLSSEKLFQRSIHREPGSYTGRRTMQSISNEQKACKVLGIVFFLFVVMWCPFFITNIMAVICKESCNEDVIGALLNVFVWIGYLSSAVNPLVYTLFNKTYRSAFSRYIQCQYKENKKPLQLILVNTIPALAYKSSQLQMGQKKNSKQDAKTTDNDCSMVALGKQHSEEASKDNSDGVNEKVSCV

[5] = biological target: T5, 5HT2C receptor (Homo sapiens, UniProt P28335); test: Binding affinity at cloned human 5HT2C receptor, [3H]Mesulergine
T5 construct: expressed in transfected cells
T5 sequence (P28335 33-458): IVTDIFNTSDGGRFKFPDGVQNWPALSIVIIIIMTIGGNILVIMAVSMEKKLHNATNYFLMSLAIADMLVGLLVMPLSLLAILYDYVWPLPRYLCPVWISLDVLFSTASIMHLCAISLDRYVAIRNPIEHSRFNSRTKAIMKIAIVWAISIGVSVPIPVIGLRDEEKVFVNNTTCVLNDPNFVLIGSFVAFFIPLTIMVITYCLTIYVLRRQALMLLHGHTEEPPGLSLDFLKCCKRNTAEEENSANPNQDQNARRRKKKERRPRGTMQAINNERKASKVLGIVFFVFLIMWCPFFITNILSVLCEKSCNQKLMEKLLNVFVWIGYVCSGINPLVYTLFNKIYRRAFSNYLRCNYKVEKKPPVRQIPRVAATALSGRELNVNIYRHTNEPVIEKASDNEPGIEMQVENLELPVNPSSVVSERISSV

[6] = biological target: T2, D2 receptor; test: Agonist potency by [3H]thymidine incorporation (mitogenesis), D2; format: cell-based; conditions: [3H]thymidine incorporation; for Emax: >80% full agonist, read-out: D2 % Maxm Stim
Experimental: (§3) Potential as domaminergenic agonists was assayed by ^3H-thymidine incorporation by standard techniques.
(§4) The EC50 values thus indicate intrinsic activities or functional activities of these compounds. The value of % maximum stimulation indicates whether a compound is a partial agonist or full agonist. Generally, a value greater than 80% is considered as a full agonist and anything less than 80% is considered as a partial agonist.

[7] = biological target: T6, D2L receptor (Homo sapiens, UniProt P14416); test: Inhibition constants for binding to cloned D2L receptor expressed in HEK cells, [3H]spiperone
T6 construct: expressed in transfected cells; host or cells: HEK cells
T6 sequence (P14416 whole entry): as the sequence (P14416 whole entry) above
Experimental: (§5) Inhibition constants for binding to cloned D2L and D3 receptors expressed in HEK cells by displacing [^3H] spiperone were measured for several compounds.

[8] = biological target: T7, D3 receptor (Homo sapiens, UniProt P35462); test: Inhibition constants for binding to cloned D3 receptor expressed in HEK cells, [3H]spiperone; conditions: D3 expressed in HEK cells
T7 sequence (P35462 whole entry): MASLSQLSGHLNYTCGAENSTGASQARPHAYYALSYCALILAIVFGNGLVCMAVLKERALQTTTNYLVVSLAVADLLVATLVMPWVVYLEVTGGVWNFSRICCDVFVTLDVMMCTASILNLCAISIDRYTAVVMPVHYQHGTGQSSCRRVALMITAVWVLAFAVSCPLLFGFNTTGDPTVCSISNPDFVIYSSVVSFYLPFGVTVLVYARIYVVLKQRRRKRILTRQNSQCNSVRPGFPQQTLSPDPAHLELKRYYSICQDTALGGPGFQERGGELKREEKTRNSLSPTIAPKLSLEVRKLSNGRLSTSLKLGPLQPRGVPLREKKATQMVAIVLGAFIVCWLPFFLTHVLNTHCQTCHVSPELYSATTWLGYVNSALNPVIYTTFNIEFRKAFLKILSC
Experimental: as §5

[9] = biological target: T7, D3 receptor; test: Binding affinity at cloned human D3 receptor, [3H]YM-09151-2 (CHOp-D3 cells); set-up: expressed in transfected cells; host or cells: CHOp-D3 cells; conditions: for Ki: cloned human D3; for D2/D3: ratio of Ki D2 to Ki D3, [3H]YM-09151-2 protocol of Table 4
Experimental: as §1, §2

[10] = biological target: T7, D3 receptor; test: Agonist potency by [3H]thymidine incorporation (mitogenesis), D3; format: cell-based; set-up: expressed in transfected cells; host or cells: CHOp-D3 cells; conditions: [3H]thymidine incorporation; for Emax: >80% full agonist, read-out: D3 % Maxm Stim
Experimental: as §3, §4

[11] = biological target: T2, D2 receptor; test: Binding affinity at cloned human D2 receptor, [3H]Spiperone (Table 5); conditions: for affinity for the D2 receptor: Table 5; for Ki: cloned human D2, Table 5
[12] = biological target: T7, D3 receptor; test: Binding affinity at cloned human D3 receptor, [3H]Spiperone (Table 5); set-up: expressed in transfected cells; host or cells: CHOp-D3 cells; conditions: for activity at the D3 receptor: Table 5; for Ki: cloned human D3, Table 5

T1 sequence (P21728 whole entry): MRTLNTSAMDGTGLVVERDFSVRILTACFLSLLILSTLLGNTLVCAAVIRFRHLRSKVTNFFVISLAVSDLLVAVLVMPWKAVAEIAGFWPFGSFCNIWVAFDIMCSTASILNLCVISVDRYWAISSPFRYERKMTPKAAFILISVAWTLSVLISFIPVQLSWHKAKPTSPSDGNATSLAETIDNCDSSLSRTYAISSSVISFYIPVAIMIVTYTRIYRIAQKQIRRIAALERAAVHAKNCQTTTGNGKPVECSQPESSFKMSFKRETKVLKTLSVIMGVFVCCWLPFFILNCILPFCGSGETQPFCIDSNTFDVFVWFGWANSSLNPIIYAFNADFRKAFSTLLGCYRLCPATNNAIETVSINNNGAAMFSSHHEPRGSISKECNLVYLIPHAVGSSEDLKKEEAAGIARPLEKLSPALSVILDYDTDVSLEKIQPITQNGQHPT

SMILES	Ki [1]	Ki [2]	Ki [3]	Ki [4]	Ki [5]	EC50 [6]	Emax [6]	Ki [7]	Ki [8]	Ki [9]	D2/D3 [9]	EC50 [10]	Emax [10]	selectivity for D3 relative to the standard 7-OH-DPAT ([9]; protocol used in Table 4)	affinity for the D2 receptor [11]	Ki [11]	activity at the D3 receptor [12]	Ki [12]
C#CCN(CCN1CCN(c2ccccc2)CC1)C1CCc2ccc(O)cc2C1 (centres unmarked) [Compound 12a, 7-Hydroxy-1-2-[N-propargyl-(N-(4-phenylpiperazin-1-yl)-ethyl)amino]tetralin]	663 nM	65.5 nM	27.6 nM	161 nM	2690 nM	6.18 ± 0.18 nM	87.2 ± 2.16%	245 ± 26 nM	14.2 ± 1.7 nM	23.5 nM	2.8	1.25 ± 0.08 nM	94.5 ± 6.17%	–	–	–	–	–
CCCN(CCN1CCN(c2ccccc2)CC1)C1CCc2ccc(O)cc2C1 (centres unmarked) [Compound 15a, 7-Hydroxy-2-[N-propyl-(N-(4-phenylpiperazin-1-yl)-ethyl)amino]tetralin]	> 10000 nM	75.5 nM	21.4 nM	1540 nM	> 10000 nM	1.59 ± 0.06 nM	105 ± 11.3%	213 ± 26 nM	1.75 ± 0.34 nM	3.2 nM	25	0.97 ± 0.02 nM	84.6 ± 10.8%	more than two fold	–	–	–	–
CCCN(CCCCN1CCN(c2cccc(Cl)c2Cl)CC1)C1CCc2ccc(O)cc2C1 (centres unmarked) [Compound 19a, 7-Hydroxy-2-[N-propyl-(N-(4-(2,3-dichlorophenyl)-piperazin-1-yl)-butyl)amino]tetralin]	4060 nM	31.5 nM	40.6 nM	356 nM	639 nM	8.31 ± 0.69 nM	80.1 ± 8.15%	8.78 ± 0.81 nM	2.26 ± 0.5 nM	2.66 nM	15	6.49 ± 2.46 nM	85.7 ± 1.19%	–	–	–	–	–
C#CCN(CCCCN1CCN(c2cccc(Cl)c2Cl)CC1)C1CCc2ccc(O)cc2C1 (centres unmarked) [Compound 19b, 7-Hydroxy-2-[N-propargyl-(N-(4-(2,3-dichlorophenyl)-piperazin-1-yl)-butyl)amino]tetralin]	1720 nM	28.1 nM	64.4 nM	160 nM	264 nM	11.8 ± 1.84 nM	85.7 ± 9.15%	7.37 ± 0.27 nM	3.59 ± 0.58 nM	12.7 nM	2.3	3.08 ± 1.09 nM	90.3 ± 15.5%	–	–	–	–	–
CCCN(CCc1cccc(N)c1)CCN1CCN(c2ccccc2)CC1 [Compound 29b, 3-(2-{[2-(4-Phenyl-piperazin-1-yl)-ethyl]-propyl-amino}-ethyl)-phenylamine]	–	–	–	–	–	–	–	–	–	–	–	–	–	–	exceptionally low affinity	23500 nM	some activity	1480 nM

Next, values leading:

Ki [1]	Ki [2]	Ki [3]	Ki [4]	Ki [5]	EC50 [6]	Emax [6]	Ki [7]	Ki [8]	Ki [9]	D2/D3 [9]	EC50 [10]	Emax [10]	selectivity for D3 relative to the standard 7-OH-DPAT ([9]; protocol used in Table 4)	affinity for the D2 receptor [11]	Ki [11]	activity at the D3 receptor [12]	Ki [12]	SMILES
–	–	–	–	–	–	–	–	–	–	–	–	–	–	exceptionally low affinity	25600 nM	some activity	1150 nM	CCCN(CCc1ccc(N)cc1)CCN1CCN(c2ccccc2)CC1 [Compound 29a, 4-(2-{[2-(4-Phenyl-piperazin-1-yl)-ethyl]-propyl-amino}-ethyl)-phenylamine]
–	–	–	–	–	–	–	–	–	–	–	–	–	–	–	702 ± 22 nM	–	5.98 ± 0.7 nM	CCCN(CCc1ccc(NS(=O)(=O)c2ccc(Cl)cc2)cc1)CCN1CCN(c2ccccc2)CC1 [Compound 30a, 4-Chloro-N-[4-(2-{[2-(4-phenyl-piperazin-1-yl)-ethyl]-propyl-amino}-ethyl)-phenyl]-benzenesulfonamide]
–	–	–	–	–	–	–	–	–	–	–	–	–	–	–	552 ± 31 nM	–	36.8 ± 5.4 nM	CCCN(CCc1cccc(NS(=O)(=O)c2ccc(Cl)cc2)c1)CCN1CCN(c2ccccc2)CC1 [Compound 30b, 4-Chloro-N-[3-(2-{[2-(4-phenyl-piperazin-1-yl)-ethyl]-propyl-amino}-ethyl)-phenyl]-benzenesulfonamide]
